Results: PubChem BioAssay AID1963863 (Molecular Pharmacology Branch, DTP, NCI, 2024)

System: 931267-113-T-J1-PDC KRAS spheroid with HUVEC/MSC, viability
Assay: Anticancer human tumor 931267-113-T-J1-PDC patient-derived colon adenocarcinoma cell line growth inhibition [KRAS2]
Conditions: for IC50: curve of first compound; for viability, T/C: stronger effect = lower value
From the text: Multicellular complex tumor spheroid response to RAS pathway inhibitors in combination with a targeted agents in patient-derived cell lines with oncogenic KRAS variants from multiple cancer types
A high-throughput screen of multi-cell type tumor spheroids was designed to identify active combinations of targeted small molecules and KRAS pathway inhibitors. Complex spheroids include a stromal component modeled by human endothelial cells (HUVEC) and fibroblasts modeled by human mesenchymal stem cells (MSCs). The concentration ranges selected for each drug and investigational agent were based upon clinically achievable concentrations if the clinical Cmax of the agent was known.
Compounds. The drugs and investigational agents: BI-3406 (NSC825286), BAY-293 (NSC824723), batoprotafib (TNO155; NSC825523), sotorasib (AMG 510; NSC818433), MRTX1257 (NSC819558), elimusertib (BAY 1895344; NSC800525), molibresib (GSK525762; NSC774829), temuterkib (LY3214996; NSC803410), venetoclax (NSC766270), alisertib (NSC759677), olaparib (NSC753686), talazoparib (NSC767125), erdafitinib (NSC781556), ipatasertib (NSC767898), cabozantinib (NSC761068), nintedanib (NSC756659), abemaciclib (NSC768073), docetaxel (NSC628503), trametinib (NSC758246), and sapanisertib (NSC764658) were obtained from the National Cancer Institute (NCI) Developmental Therapeutics Program Chemical Repository. The FDA-approved anticancer drug set is available from the Developmental Therapeutics Program. […] The stock solutions were prepared in dimethyl sulfoxide (DMSO, Sigma-Aldrich, St. Louis, MO, cat. D2650) at 800-fold the tested concentration and stored at -70 degrees C prior to their use. All drugs and investigational agents were tested over a range starting from a high concentration at or near the clinical Cmax and decreasing in half-log increments. If the clinical Cmax for an agent had not been determined, the highest concentration tested was 10 microM.
Cell Culture. All cells were maintained in an incubator at 37 degrees C and 5% CO2 with 95% humidity. The PDC lines were cultured according to standard operating procedures established by the NCI PDMR (https://pdmr.cancer.gov/sops/default.htm). Briefly, all PDCs were thawed and cultured in Matrigel-coated flasks prepared with a working solution of 1X Ham's F-12 nutrient mix, without supplementation (Invitrogen, Waltham, MA, cat. 11765054), 100 U/mL penicillin-streptomycin (Invitrogen, cat. 15140122), and 2.5% Matrigel (Corning Inc., Corning, NY, cat. 354248) for the first three passages. All PDCs were cultured in complete DMEM/F-12 media containing advanced DMEM/F-12 (Invitrogen, cat. 12634028), 4.9% defined fetal bovine serum, heat inactivated (HyClone Laboratories Inc., Logan, UT, cat. SH30070.03HI), 389 ng/mL hydrocortisone (Sigma-Aldrich, cat. H4001), 9.7 ng/mL human EGF recombinant protein (Invitrogen, cat. PHG0313), 23.4 microg/mL adenine (Sigma-Aldrich, cat. A2786), 97.3 U/mL penicillin-streptomycin (Invitrogen, cat. 15140122), 1.9 mM L-glutamine (Invitrogen, cat. 25030081), and 9.7 microM Y-27632 dihydrochloride (Tocris Bioscience, Bristol, United Kingdom, cat. 1254). The PDCs were cultured in complete DMEM/F12 media without 9.7 microM Y-27632 dihydrochloride for at least two passages prior to the screen. The established cell line HOP-62 was cultured in RPMI 1640 medium, HEPES (Invitrogen, cat. 22400105) with 10% defined fetal bovine serum (HyClone Laboratories Inc., cat. SH30070.03) and 2 mM L-glutamine (Invitrogen, cat. 25030081). The pooled donor HUVEC were cultured in endothelial cell growth medium 2 (PromoCell, Heidelberg, Germany, cat. C-22011) and the hMSC were cultured in mesenchymal stem cell growth medium 2 (PromoCell, cat. C-28009). For all experiments, HUVEC and hMSC were used at passages </=5, while the malignant cell lines were used at passages </=15. […]

[1] = second compound 0.1 µM, first compound 0.0316 µM
[2] = second compound 0.1 µM, first compound 0.1 µM
[3] = second compound 0.1 µM, first compound 0.316 µM
[4] = second compound 0.1 µM, first compound 1 µM
[5] = second compound 0.1 µM, first compound 3.16 µM
[6] = second compound 0.1 µM, first compound 10 µM
[7] = second compound 0.316 µM, first compound 0.0316 µM
[8] = second compound 0.316 µM, first compound 0.1 µM
[9] = second compound 0.316 µM, first compound 0.316 µM
[10] = second compound 0.316 µM, first compound 1 µM
[11] = second compound 0.316 µM, first compound 3.16 µM
[12] = second compound 0.316 µM, first compound 10 µM
[13] = second compound 1 µM, first compound 0.0316 µM
[14] = second compound 1 µM, first compound 0.1 µM
[15] = second compound 1 µM, first compound 0.316 µM
[16] = second compound 1 µM, first compound 1 µM
[17] = second compound 1 µM, first compound 3.16 µM
[18] = second compound 1 µM, first compound 10 µM
[19] = second compound 3.16 µM, first compound 0.0316 µM
[20] = second compound 3.16 µM, first compound 0.1 µM
[21] = second compound 3.16 µM, first compound 0.316 µM
[22] = second compound 3.16 µM, first compound 1 µM
[23] = second compound 3.16 µM, first compound 3.16 µM
[24] = second compound 3.16 µM, first compound 10 µM
[25] = second compound 10 µM, first compound 0.0316 µM
[26] = second compound 10 µM, first compound 0.1 µM
[27] = second compound 10 µM, first compound 0.316 µM
[28] = second compound 10 µM, first compound 1 µM
[29] = second compound 10 µM, first compound 3.16 µM
[30] = second compound 10 µM, first compound 10 µM
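Note: compound exposure lasted 7 days before the readout.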
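Throughout, for viability, T/C: 100% = DMSO vehicle control viability.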

Structure (SMILES)	IC50 (second compound 0.1 µM)	IC50 (second compound 0.316 µM)	IC50 (second compound 1 µM)	IC50 (second compound 3.16 µM)	IC50 (second compound 10 µM)	viability, T/C [1]	viability, T/C [2]	viability, T/C [3]	viability, T/C [4]	viability, T/C [5]	viability, T/C [6]	viability, T/C [7]	viability, T/C [8]	viability, T/C [9]	viability, T/C [10]	viability, T/C [11]	viability, T/C [12]	viability, T/C [13]	viability, T/C [14]	viability, T/C [15]	also measured
COC(=O)c1ccc2c(C(=Nc3ccc(N(C)C(=O)CN4CCN(C)CC4)cc3)c3ccccc3)c(O)[nH]c2c1 + C=CC(=O)N1CCN(c2nc(=O)n(-c3c(C)ccnc3C(C)C)c3nc(-c4c(O)cccc4F)c(F)cc23)C(C)C1	1340 nM	1080 nM	1050 nM	922 nM	984 nM	107%	100%	90.5%	67%	0.52%	0.48%	120%	103%	84.8%	63.4%	0.81%	0.29%	129%	116%	82.8%	viability, T/C [16]: 65.8%; viability, T/C [17]: 0.56%; viability, T/C [18]: 0.21%; viability, T/C [19]: 121%; viability, T/C [20]: 134%; viability, T/C [21]: 82.8%; viability, T/C [22]: 56.4%; viability, T/C [23]: 0.33%; viability, T/C [24]: 0.22%; viability, T/C [25]: 119%; viability, T/C [26]: 103%; viability, T/C [27]: 103%; viability, T/C [28]: 50%; viability, T/C [29]: 0.49%; viability, T/C [30]: 0.31%
O=C(c1cc(Cc2n[nH]c(=O)c3ccccc23)ccc1F)N1CCN(C(=O)C2CC2)CC1 + C=CC(=O)N1CCN(c2nc(=O)n(-c3c(C)ccnc3C(C)C)c3nc(-c4c(O)cccc4F)c(F)cc23)C(C)C1	> 10000 nM	> 10000 nM	> 10000 nM	> 10000 nM	> 10000 nM	94.3%	87%	82.3%	97.7%	101%	85.1%	110%	108%	81.9%	83.6%	93.9%	97.3%	88%	103%	113%	viability, T/C [16]: 100%; viability, T/C [17]: 88.2%; viability, T/C [18]: 92.2%; viability, T/C [19]: 105%; viability, T/C [20]: 115%; viability, T/C [21]: 110%; viability, T/C [22]: 89.9%; viability, T/C [23]: 107%; viability, T/C [24]: 112%; viability, T/C [25]: 89.2%; viability, T/C [26]: 102%; viability, T/C [27]: 113%; viability, T/C [28]: 111%; viability, T/C [29]: 102%; viability, T/C [30]: 99.6%
